Experimental data published in patent publication US20140171417A1, “TRICYCLIC COMPOUNDS” (NOVARTIS AG, priority 2012, published 2014).

Molecular target: T1, CFTR (Homo sapiens, UniProt P13569)
T1 construct: expressed in transfected cells
Assay: IonWorks Quattro assay (CFTR Inhibitor Assay), whole-cell planar patch clamp
Assay type: cell-based
Conditions: inward current (−100 mV); CHO cells stably expressing WT-CFTR; CFTR activated by 10 μM forskolin; test compound incubated 10 min
Excerpt: CFTR activity can be quantified by electrophysiology methods, using the whole-cell configuration of the patch clamp technique (Hamill O, Marty A, Neher E, Sakmann B and Sigworth F. ‘Improved patch-clamp techniques for high resolution current recording from cells and cell-free membrane patches.’ Pflugers Archive 1981 391: 85-100). This assay directly measures the currents associated with chloride flow through CFTR channels whilst either maintaining or adjusting the transmembrane voltage. This assay can use either single glass micropipettes or parallel planar arrays to measure CFTR activity from native or recombinant cell systems. Currents measured using parallel planar arrays can be quantified using an appropriately equipped instrument such as the IonWorks Quattro (Molecular Devices Corporation, Sunnyvale, Calif.). The Quattro system can measure CFTR currents from either a single cell per recording well (HT configuration) or alternatively from a population of 64 cells per well (Population Patch Clamp PPC) (Finkel A, Wittel A, Yang N, Handran S, Hughes J, Costantin J. ‘Population patch clamp improves data consistency and success rates in the measurement of ionic currents.’ J Biomol Screen. 2006 August; 11 (5):488-96).
Chinese hamster ovary (CHO) cells stably expressing WT-CFTR channels were used for the IonWorks Quattro experiments. Cells were maintained at 37° C. in 5% v/v CO2 at 100% humidity in MEM alpha medium supplemented with 10% (v/v) FCS, 100 U/mL Penicillin/Streptomycin, and 100 μg/L methotrexate. For experiments, cells were grown in 225 cm^2 tissue culture flasks until almost confluent. Cells were removed from the flask using trypsin-EDTA and resuspended in extracellular recording solution for immediate experimentation.
Cells, at a density of 1.5-2 million per mL, were placed on the Quattro system, added to the planar patch plate and seals allowed to establish for 5-10 mins. After assessing seal resistances (typically >50 MΩ), whole-cell access was obtained by perforation with 100 μg/mL amphotericin B. Baseline currents were measured by a pre-compound scan obtained by application of a voltage ramp from −100 to +100 mV. CFTR was activated by the addition of 10 μM forskolin to each of the 384 wells of the patch plate. After 5 min incubation the post-compound 1 currents were measured, again by application of a voltage ramp from −100 to +100 mV. Test compounds, diluted from 10 mM stocks in DMSO in extracellular solution were then added to the patch plate and were incubated for a further 10 min. The post-compound 2 currents were measured by the application of the same voltage ramp from −100 to +100 mV. The inhibition of CFTR was determined from the difference in current between the forskolin addition (post-compound 1) and the test compound (post-compound 2). This was determined at both −100 mV and +100 mV which represents the inward and outward current respectively.
Extracellular solution (ECS): 145 mM NaCl, 4 mM CsCl, 5 mM D-glucose, 10 mM TES, 1 mM CaCl2, 1 mM MgCl2, pH 7.4 NaOH
Intracellular solution (ICS): 113 mM L-Aspartic acid, 113 mM CsOH, 27 mM CsCl, 1 mM NaCl, 1 mM MgCl2, 1 mM EGTA, 10 mM TES. pH 7.2 with CsOH. Filter sterilized before use.

T1 sequence (P13569 whole entry): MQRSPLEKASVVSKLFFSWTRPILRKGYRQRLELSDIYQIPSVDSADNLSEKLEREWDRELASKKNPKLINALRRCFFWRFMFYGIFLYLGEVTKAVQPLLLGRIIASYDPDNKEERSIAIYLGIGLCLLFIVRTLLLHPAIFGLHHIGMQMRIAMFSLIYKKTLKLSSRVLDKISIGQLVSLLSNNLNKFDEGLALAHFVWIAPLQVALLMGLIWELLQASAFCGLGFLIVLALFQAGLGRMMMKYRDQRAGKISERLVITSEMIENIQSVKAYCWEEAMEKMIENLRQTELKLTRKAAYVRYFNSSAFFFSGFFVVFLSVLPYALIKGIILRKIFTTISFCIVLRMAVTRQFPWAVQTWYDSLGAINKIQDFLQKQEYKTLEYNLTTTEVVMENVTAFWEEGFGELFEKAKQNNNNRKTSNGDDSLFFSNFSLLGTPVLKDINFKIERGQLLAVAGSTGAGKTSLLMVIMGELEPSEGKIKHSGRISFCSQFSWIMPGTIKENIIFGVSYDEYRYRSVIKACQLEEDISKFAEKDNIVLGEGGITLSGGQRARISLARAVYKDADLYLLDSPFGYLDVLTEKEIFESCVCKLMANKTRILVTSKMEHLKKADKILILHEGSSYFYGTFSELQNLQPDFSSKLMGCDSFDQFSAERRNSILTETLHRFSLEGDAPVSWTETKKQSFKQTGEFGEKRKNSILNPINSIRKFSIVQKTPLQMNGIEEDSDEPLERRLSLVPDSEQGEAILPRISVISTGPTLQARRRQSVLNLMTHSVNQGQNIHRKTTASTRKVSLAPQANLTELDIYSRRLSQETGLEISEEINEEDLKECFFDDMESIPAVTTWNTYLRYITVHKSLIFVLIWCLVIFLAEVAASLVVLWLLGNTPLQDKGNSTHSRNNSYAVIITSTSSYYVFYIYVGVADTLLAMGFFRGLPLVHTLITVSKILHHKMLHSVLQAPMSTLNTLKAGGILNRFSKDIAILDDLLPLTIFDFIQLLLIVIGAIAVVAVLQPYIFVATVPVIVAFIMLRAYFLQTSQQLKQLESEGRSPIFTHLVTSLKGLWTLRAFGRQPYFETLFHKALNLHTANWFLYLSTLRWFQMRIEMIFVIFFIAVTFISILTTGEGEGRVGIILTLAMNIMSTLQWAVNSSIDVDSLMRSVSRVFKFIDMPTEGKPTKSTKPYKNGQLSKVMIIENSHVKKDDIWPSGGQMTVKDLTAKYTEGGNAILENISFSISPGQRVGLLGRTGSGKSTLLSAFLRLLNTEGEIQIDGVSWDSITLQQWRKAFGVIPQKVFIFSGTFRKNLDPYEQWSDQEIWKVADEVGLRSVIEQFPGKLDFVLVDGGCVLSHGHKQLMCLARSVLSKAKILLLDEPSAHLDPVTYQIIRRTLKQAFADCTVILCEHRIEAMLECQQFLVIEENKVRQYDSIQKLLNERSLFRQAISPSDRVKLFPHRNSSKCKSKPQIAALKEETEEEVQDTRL

| Structure (SMILES) | IC50 [µM] |
| --- | --- |
| Cc1ccc([C@@H]2CCCn3c(-c4ccccc4)c4c(=O)n(C)c(=O)n(C)c4c32)o1 [Example 6.3, (R)-1,3-Dimethyl-10-(5-methylfuran-2-yl)-5-phenyl-7,8,9,10-tetrahydropyrimido[4,5-a]indolizine-2,4(1H,3H)-dione] | 2.24 |
| Cn1c(=O)c2c(-c3nc(CO)cs3)n3c(c2n(C)c1=O)[C@H](c1ccc(Cl)o1)SCC3 (single isomer, unassigned) [Example 15, 10-(5-Chlorofuran-2-yl)-5-(4-(hydroxymethyl)thiazol-2-yl)-1,3-dimethyl-7,8-dihydro-1H-pyrimido[4′,5′:3,4]pyrrolo[2,1-c][1,4]thiazine-2,4(3H,10H)-dione] | 0.1 |
| Cc1csc(-c2c3c(=O)n(C)c(=O)n(C)c3c3n2CCSC3c2ccc(Cl)o2)n1 (single isomer, unassigned) [Example 3.1.1, 10-(5-chlorofuran-2-yl)-1,3-dimethyl-5-(4-methylthiazol-2-yl)-7,8-dihydro-1H-pyrimido[4′,5′:3,4]pyrrolo[2,1-c][1,4]thiazine-2,4(3H,10H)-dione] | 0.41 |
| Cn1c(=O)c2c(-c3cccc(C#N)c3)n3c(c2n(C)c1=O)C(c1ccc(Cl)o1)SCC3 (single isomer, unassigned) [Example 3.5, 3-(10-(5-chlorofuran-2-yl)-1,3-dimethyl-2,4-dioxo-2,3,4,7,8,10-hexahydro-1H-pyrimido[4′,5′:3,4]pyrrolo[2,1-c][1,4]thiazin-5-yl)benzonitrile] | 0.16 |
| Cc1ccc(C2c3c4c(c(-c5cccc(F)c5)n3CCC2(F)F)c(=O)n(C)c(=O)n4C)o1 (racemic) [Example 18, 9,9-Difluoro-5-(3-fluorophenyl)-1,3-dimethyl-10-(5-methylfuran-2-yl)-7,8,9,10-tetrahydropyrimido[4,5-a]indolizine-2,4(1H,3H)-dione] | 0.48 |
| C=C1Cn2c(-c3cccc(F)c3)c3c(=O)n(C)c(=O)n(C)c3c2C1c1nc(Cl)cs1 (racemic) [Example 29, 9-(4-Chlorothiazol-2-yl)-5-(3-fluorophenyl)-1,3-dimethyl-8-methylene-8,9-dihydro-1H-pyrimido[4,5-a]pyrrolizine-2,4(3H,7H)-dione] | 0.44 |
| Cc1csc(C2CCNn3c(-c4ccccc4)c4c(=O)n(C)c(=O)n(C)c4c32)n1 (racemic) [Example 10.0, 1,3-Dimethyl-10-(4-methylthiazol-2-yl)-5-phenyl-7,8,9,10-tetrahydropyrimido[4′,5′:3,4]pyrrolo[1,2-b]pyridazine-2,4(1H,3H)-dione] | 2.15 |
| Cc1ccc([C@@H]2C[C@H](C)Cn3c(-c4cccc(F)c4)c4c(=O)n(C)c(=O)n(C)c4c32)o1 (single isomer, unassigned) [Example 7.5b, 5-(3-fluorophenyl)-1,3,8-trimethyl-10-(5-methylfuran-2-yl)-7,8,9,10-tetrahydropyrimido[4,5-a]indolizine-2,4(1H,3H)-dione] | 2.18 |
| COc1cccc(-c2c3c(=O)n(C)c(=O)n(C)c3c3n2CCSC3c2ccc(Cl)o2)c1 (single isomer, unassigned) [Example 15.13, 10-(5-Chlorofuran-2-yl)-5-(3-methoxyphenyl)-1,3-dimethyl-7,8-dihydro-1H-pyrimido[4′,5′:3,4]pyrrolo[2,1-c][1,4]thiazine-2,4(3H,10H)-dione] | 0.62 |
| Cc1ccc(C2SC[C@H](CN(C)C)n3c(-c4ccccc4)c4c(=O)n(C)c(=O)n(C)c4c32)o1 (single isomer, unassigned) [Example 2.1, 7-((dimethylamino)methyl)-1,3-dimethyl-10-(5-methylfuran-2-yl)-5-phenyl-7,8-dihydro-1H-pyrimido[4′,5′:3,4]pyrrolo[2,1-c][1,4]thiazine-2,4(3H,10H)-dione] | 0.41 |
| Cn1c(=O)c2c(-c3nc(C(=O)O)cs3)n3c(c2n(C)c1=O)C(c1ccc(Cl)o1)SCC3 (racemic) [Example 25, 2-(10-(5-Chlorofuran-2-yl)-1,3-dimethyl-2,4-dioxo-2,3,4,7,8,10-hexahydro-1H-pyrimido[4′,5′:3,4]pyrrolo[2,1-c][1,4]thiazin-5-yl)thiazole-4-carboxylic acid] | 4.84 |
| Cc1nc(-c2c3c(=O)n(C)c(=O)n(C)c3c3n2CCC[C@H]3c2nc(Cl)cs2)cs1 (single isomer, unassigned) [Example 13.3a, 10-(4-chlorothiazol-2-yl)-1,3-dimethyl-5-(2-methylthiazol-4-yl)-7,8,9,10-tetrahydropyrimido[4,5-a]indolizine-2,4(1H,3H)-dione] | 0.09 |
| Cn1ccc(-c2c3c(=O)n(C)c(=O)n(C)c3c3n2CCSC3c2ccc(Cl)o2)n1 (single isomer, unassigned) [Example 15.11, 10-(5-Chlorofuran-2-yl)-1,3-dimethyl-5-(1-methyl-1H-pyrazol-3-yl)-7,8-dihydro-1H-pyrimido[4′,5′:3,4]pyrrolo[2,1-c][1,4]thiazine-2,4(3H,10H)-dione] | 0.13 |
| Cn1c(=O)c2c(-c3nc(CO)cs3)n3c(c2n(C)c1=O)C(c1nc(Cl)cs1)CCC3 (single isomer, unassigned) [Example 13.1a, 10-(4-chlorothiazol-2-yl)-5-(4-(hydroxymethyl)thiazol-2-yl)-1,3-dimethyl-7,8,9,10-tetrahydropyrimido[4,5-a]indolizine-2,4(1H,3H)-dione] | 0.1 |
| Cn1c(=O)c2c(-c3ccccc3)n3c(c2n(C)c1=O)C(c1cccc(F)c1F)CCC3 (racemic) [Example 6.1, 10-(2,3-Difluorophenyl)-1,3-dimethyl-5-phenyl-7,8,9,10-tetrahydropyrimido[4,5-a]indolizine-2,4(1H,3H)-dione] | 27.6 |
| CCOc1cccc(-c2c3c(=O)n(C)c(=O)n(C)c3c3n2CCSC3c2ccc(Cl)o2)c1 (single isomer, unassigned) [Example 15.12, 10-(5-Chlorofuran-2-yl)-5-(3-ethoxyphenyl)-1,3-dimethyl-7,8-dihydro-1H-pyrimido[4′,5′:3,4]pyrrolo[2,1-c][1,4]thiazine-2,4(3H,10H)-dione] | 9.27 |
| Cn1c(=O)c2c(-c3ccccc3)n3c(c2n(C)c1=O)C(c1cccc(Cl)c1)SCC3 (racemic) [Example 1.6, 10-(3-Chlorophenyl)-1,3-dimethyl-5-phenyl-7,8-dihydro-1H-pyrimido[4′,5′:3,4]pyrrolo[2,1-c][1,4]thiazine-2,4(3H,10H)-dione] | 11.1 |
| COCC(=O)NC[C@H]1Cn2c(-c3nc(C)cs3)c3c(=O)n(C)c(=O)n(C)c3c2[C@H](c2ccc(Cl)o2)S1 (single isomer, unassigned) [Example 26.1a, N-((10-(5-chlorofuran-2-yl)-1,3-dimethyl-5-(4-methylthiazol-2-yl)-2,4-dioxo-2,3,4,7,8,10-hexahydro-1H-pyrimido[4′,5′:3,4]pyrrolo[2,1-c][1,4]thiazin-8-yl)methyl)-2-methoxyacetamide] | 0.23 |

The next lines start with the values.

| IC50 [µM] | Structure (SMILES) |
| --- | --- |
| 0.24 | Cc1nc(-c2c3c(=O)n(C)c(=O)n(C)c3c3n2C[C@H](CO)S[C@H]3c2ccc(Cl)o2)cs1 (single isomer, unassigned) [Example 17.2, 10-(5-Chlorofuran-2-yl)-8-(hydroxymethyl)-1,3-dimethyl-5-(2-methylthiazol-4-yl)-7,8-dihydro-1H-pyrimido[4′,5′:3,4]pyrrolo[2,1-c][1,4]thiazine-2,4(3H,10H)-dione] |
| 0.23 | Cn1ccc(-c2c3c(=O)n(C)c(=O)n(C)c3c3n2C[C@H](CO)S[C@H]3c2ccc(Cl)o2)n1 (single isomer, unassigned) [Example 17.1, 10-(5-Chlorofuran-2-yl)-8-(hydroxymethyl)-1,3-dimethyl-5-(1-methyl-1H-pyrazol-3-yl)-7,8-dihydro-1H-pyrimido[4′,5′:3,4]pyrrolo[2,1-c][1,4]thiazine-2,4(3H,10H)-dione] |
| 0.27 | Cn1c(=O)c2c(-c3cccc(C#N)c3)n3c(c2n(C)c1=O)C(c1nc(Cl)cs1)CC3 (single isomer, unassigned) [Example 20a, 3-(9-(4-chlorothiazol-2-yl)-1,3-dimethyl-2,4-dioxo-2,3,4,7,8,9-hexahydro-1H-pyrimido[4,5-a]pyrrolizin-5-yl)benzonitrile] |
